PMC12018770, “DEAD‐Box Helicase 6 Blockade in Brain‐Derived Aβ Oligomers From Alzheimer's Disease Patients Attenuates Neurotoxicity” (MedComm, 2025)
“Also recorded” adds a separate entry of the source.

How the values were obtained:
[1] = test system: Aβ42 oligomers; experiment: Binding of biotin‐labeled short peptides to Aβ42 oligomers; conditions: biotin-labeled peptide probes; bands at 30 and 10 kDa for binders
Method: We characterized the molecular mechanisms by which DDX6 influences Aβ oligomer neurotoxicity using real‐time quaking‐induced conversion (RT‐QuIC) to determine whether DDX6 promotes the formation of Aβ fibrillar plaques and oligomers. […] Next, we performed dot blotting assays (Figure 7D,E) on the four treatment groups using the A11 antibody. […] We also assessed the cytotoxic effects of the four treatment groups on HT‐22 cell cultures using CCK‐8 assays. […] Specific gray values were calculated using Total Lab 100 (Nonlinear Dynamics, Newcastle upon Tyne, UK).
(A) Cell counting kit‐8 (CCK‐8) cytotoxicity assay (n = 3). […] Total Lab 100 analysis software was used to calculate the percentage of gray values for 157 polypeptide spots.
The Aβ42 peptide was obtained from Abcam (#ab120301, USA). Aβ42 was solubilized using 1 mM hexafluoroisopropanol (#105228; Sigma‐Aldrich, Germany) and evaporated overnight in a desiccator to form a dry film. The film was then dissolved in dimethyl sulfoxide (#D8418; Sigma‐Aldrich) to a concentration of 5 mM, mixed with phosphate‐buffered saline, and incubated for 72 h at 4°C. The GST‐DDX6 protein was synthesized by KMD Bioscience Biotech Co., Ltd. (Tianjin, China). The biotin‐labeled short peptide was synthesized by Hubei Qiangyao Biotechnology Co., Ltd. (Hubei, China).

[2] = test system: Aβ42 oligomers; experiment: Peptide chip microarray of DDX6 peptides (1–157) with Aβ42 oligomers; conditions: Aβ oligomers 2.0 µg/mL, overnight 4°C; ECL; > 30% indicates effective binding site; Total Lab 100
[3] = test system: AD patients; conditions: cited from earlier work
[4] = test system: human‐derived Aβ oligomers; experiment: Co-immunoprecipitation / Western blotting of protein-Aβ oligomer interaction in AD brain extracts; type: binding; conditions: IgG isotype control
From the text: After rigorous data analysis with SAINTexpress, four proteins (DDX6, DSP, JUP, and HRNR) were identified as potential Aβ oligomer‐binding partners. To validate these findings, we selected DSP and DDX6 as positive controls for co‐IP analysis; tau proteins were used as negative controls. Input samples, IP, co‐IP extracts, and IgG controls were adjusted to ensure equal amounts of protein for comparison. […] The IP enrichment effect was substantial for Aβ oligomers, DDX6, DSP, and tau proteins. In the co‐IP extracts for DDX6 and DSP, Aβ oligomers were detected at approximately 55 and 30 kDa, respectively (indicated by “ [drawing 1] ”). […] Isotype control IgG was used to exclude nonspecific binding (Figure 2A).
A Co‐IP kit (Thermo Fisher Scientific; #26149, USA) was used for the assay. Antibodies (2 µg) were crosslinked to a reinforced AminoLink coupling resin (20 µL of beads) and immobilized on a Pierce spin column at room temperature. Protein extracts (1 mg) were added to the spin column and incubated overnight at 4°C with rotation. The spin column was then transferred to a new collection tube, and 60 µL of elution buffer (pH 2.8, containing tertiary amine) was added. The column was centrifuged, and the eluate was analyzed to detect the presence of the target protein.
Protein concentrations in the co‐IP extracts were measured using a bicinchoninic acid assay (#23225, Thermo Fisher Scientific, USA). For each sample, 20 µL of protein was loaded, with the following amounts of human‐derived Aβ oligomers (AD1–AD6) used: 1.8 µg, 2.0 µg, 1.9 µg, 1.6 µg, 2.0 µg, and 1.8 µg, respectively. Equivalent amounts of co‐IP extracts were loaded into the remaining lanes. A 5× loading buffer was added to the protein samples to achieve a final concentration of 1×, and the samples were incubated at 95°C for 5 min [44]. […]
B. The PVDF membrane was probed with the Aβ oligomer antibody (A11), indicating enrichment of Aβ oligomers (post-IP) with bands observed at 55 kDa and 30 kDa. Aβ oligomers were detected in the co-IP products of DDX6 (indicated by “✸”). […]

[5] = test system: human‐derived Aβ oligomers; experiment: AP-MS with SAINTexpress scoring of binding to human‐derived Aβ oligomers; conditions: score 0 to 1; criteria SAINT score > 0.5 and fold change ≥ 2; AD1–AD6, n = 6
From the text: Not all identified proteins bind to Aβ oligomers. Therefore, we used the SAINTexpress statistical method to screen for proteins most likely to interact with human‐derived Aβ oligomers. SAINTexpress assigns probability scores to factors interacting with target proteins, providing a value between 0 and 1, where higher scores indicate a greater likelihood of interaction with Aβ oligomers. Based on the analyzed results, we plotted the fold change on the x‐axis and SAINT scores on the y‐axis, with each point representing a protein. Proteins meeting the criteria of a SAINT score > 0.5 and fold change ≥ 2 were considered the most likely to bind Aβ oligomers (highlighted in red). Through rigorous analysis, we identified four proteins as binding partners (Figure 1C): DDX6 (SAINT score = 0.5783), DSP (SAINT score = 0.6608), JUP (SAINT score = 0.5846), and HRNR (SAINT score = 0.5246).
An aliquot of each peptide mixture was loaded onto a trap column (in‐house‐fabricated column packed with a reversed‐phase ReproSil‐Pur C18‐AQ resin, 150 µm × 15 cm, C18, 3 µm, 100 Å, Dr. Maisch GmbH, Germany) connected to an analytical column (EASY‐Spray column, […] × 75 µm ID, PepMap RSLC C18, 2 µm, 100 Å, Thermo Scientific, USA) using the autosampler of an EASY‐nLC 1200 HPLC system (Thermo Fisher Scientific). The peptides were eluted using a gradient (solvent A: 0.1% formic acid in water; solvent B: 80% acetonitrile/0.1% formic acid in water; Sigma, Germany) directly into a Q Exactive Hybrid Quadrupole‐Orbitrap mass spectrometer (Thermo Fisher Scientific). The gradient program was as follows: 4%–8% solvent B over 2 min, 8%–28% solvent B over 43 min, 28%–40% solvent B over 10 min, 40%–95% solvent B over 1 min, and 95% solvent B for 10 min. The following mass spectrometry parameters were used: spray voltage, 2.2 kV; capillary temperature, 270°C; MS resolution, 70,000 at 400 m/z; MS precursor m/z range, 300.0–1800.0 m/z; activation type, high‐energy collision dissociation; normalized collision energy, 28.0; activation time, […]; and data‐dependent MS/MS, top 20 most intense peptide ions selected based on the preview scan in the Orbitrap.
The raw MS files (Figure S5) were analyzed and searched against species‐specific protein databases using MaxQuant (v1.6.2.10). The following parameters were applied: maximum missed cleavages, 2; precursor ion mass tolerance, 20 ppm; and MS/MS tolerance, 20 ppm. Peptides and proteins were filtered to achieve a false discovery rate of < 1% using a target‐decoy database strategy, and only proteins with at least two unique peptides were reported. […] SAINT is a probabilistic method for scoring protein–protein interactions in AP‐MS experiments, enabling the identification of proteins most likely to interact with target proteins. […]

[6] = test system: Aβ oligomers in AD brain; experiment: IHC colocalization with Aβ oligomers in AD brain sections; design: species or system human; conditions: AD7–AD10, n = 4; fluorescence scan over 120 µm
From the text: To further validate the binding interactions between Aβ oligomers and the four proteins, we performed immunohistochemistry (IHC) on brain sections from four AD patients (AD7–AD10). We analyzed the colocalization of Aβ oligomers (red) with DDX6, JUP, HRNR, and DSP (all green), as well as 4',6‐diamidino‐2‐phenylindole (DAPI)‐stained nuclei (blue). […] We also performed fluorescence intensity scanning from left to right across stained brain tissue slices (120 µm). […] The combined results from co‐IP and IHC confirm that these four proteins can bind to Aβ oligomers.
Sections were dewaxed, subjected to antigen retrieval, and blocked. They were then incubated with primary antibody (1:500) overnight at 4°C, followed by secondary antibody (1:200). Nuclei were stained with DAPI (Beyotime; C1002, Shanghai, China) for 10 min in the dark.

Molecule: GIDIQAVNVVINFDF [compound 133]
- interaction with Aβ42 oligomers [1]: all four binding peptides interacted with Aβ oligomers
- gray value of spot on peptide array [2]: exceeding 30%

Molecule: solanezumab [reference compound]
- efficacy in clinical trials (in words) ([3]; ref [11], [12], [13], [14]): failed to demonstrate efficacy in improving cognitive function during key clinical trials

Molecule: tau: tau proteins were used as negative controls [reference compound]
- binding to Aβ oligomers by co‐IP [4]: No apparent binding was observed; also recorded: tau was not detected in the co-IP products of Aβ oligomers

Molecule: DYCLKRELLMGIFEMGWE [34–45]
- interaction with Aβ42 oligomers [1]: all four binding peptides interacted with Aβ oligomers

Molecule: GKSGAYLIPLLERLD [compound 49]
- interaction with Aβ42 oligomers [1]: all four binding peptides interacted with Aβ oligomers
- gray value of spot on peptide array [2]: exceeding 30%

Molecule: desmoplakin [DSP]
- binding to Aβ oligomers by co‐IP [4]: DDX6 and DSP were also detected in Aβ oligomer co‐IP extracts; also recorded: DSP was detected in the co-IP products of Aβ oligomers
- SAINT score [5]: 0.6608
- colocalization with Aβ oligomers [6]: strong colocalization

Molecule: KPYEINLMEELTLKG [control peptide, reference compound]
- interaction with Aβ42 oligomers [1]: did not interact with Aβ oligomers

Molecule: IKPIPSNIDKSLYVAEYHSEPVED [153–156]
- interaction with Aβ42 oligomers [1]: all four binding peptides interacted with Aβ oligomers
- gray value of spot on peptide array [2]: exceeding 30%

Molecule: hornerin [HRNR]
- SAINT score [5]: 0.5246
- colocalization with Aβ oligomers [6]: strong colocalization

B1: lecanemab (antibody, chains of the INN, looked up, V domains shown)
VH: EVQLVESGGGLVQPGGSLRLSCSASGFTFSSFGMHWVRQAPGKGLEWVAYISSGSSTIYYGDTVKGRFTISRDNAKNSLFLQMSSLRAEDTAVYYCAREGGYYYGRSYYTMDYWGQGTTVTVSS
VL: DVVMTQSPLSLPVTPGAPASISCRSSQSIVHSNGNTYLEWYLQKPGQSPKLLIYKVSNRFSGVPDRFSGSGSGTDFTLRISRVEAEDVGIYYCFQGSHVPPTFGPGTKLEIK
- brain shrinkage, share of AD patients ([3]; after 18 months of treatment, ref [16]): approximately 28%
- brain hemorrhage ([3]; early AD patients, ref [15]): 17.3%
- edema or effusion ([3]; early AD patients, ref [15]): 12.6%
- headaches ([3]; early AD patients, ref [15]): 11.1%
- delay of cognitive decline ([3]; early‐stage AD patients, ref [15]): 27%
- severe side effects (in words) ([3]; some patients, ref [15], [16]): severe side effects, including brain hemorrhage, brain shrinkage, and even death

B2: junction plakoglobin (protein)
chain: MEVMNLMEQPIKVTEWQQTYTYDSGIHSGANTCVPSVSSKGIMEEDEACGRQYTLKKTTTYTQGVPPSQGDLEYQMSTTARAKRVREAMCPGVSGEDSSLLLATQVEGQATNLQRLAEPSQLLKSAIVHLINYQDDAELATRALPELTKLLNDEDPVVVTKAAMIVNQLSKKEASRRALMGSPQLVAAVVRTMQNTSDLDTARCTTSILHNLSHHREGLLAIFKSGGIPALVRMLSSPVESVLFYAITTLHNLLLYQEGAKMAVRLADGLQKMVPLLNKNNPKFLAITTDCLQLLAYGNQESKLIILANGGPQALVQIMRNYSYEKLLWTTSRVLKVLSVCPSNKPAIVEAGGMQALGKHLTSNSPRLVQNCLWTLRNLSDVATKQEGLESVLKILVNQLSVDDVNVLTCATGTLSNLTCNNSKNKTLVTQNSGVEALIHAILRAGDKDDITEPAVCALRHLTSRHPEAEMAQNSVRLNYGIPAIVKLLNQPNQWPLVKATIGLIRNLALCPANHAPLQEAAVIPRLVQLLVKAHQDAQRHVAAGTQQPYTDGVRMEEIVEGCTGALHILARDPMNRMEIFRLNTIPLFVQLLYSSVENIQRVAAGVLCELAQDKEAADAIDAEGASAPLMELLHSRNEGTATYAAAVLFRISEDKNPDYRKRVSVELTNSLFKHDPAAWEAAQSMIPINEPYGDDMDATYRPMYSSDVPLDPLEMHMDMDGDYPIDTYSDGLRPPYPTADHMLA
- SAINT score [5]: 0.5846
- colocalization with Aβ oligomers [6]: strong colocalization
